Measurements taken from publication PMC6295868, “Hybrid Inhibitors of Malarial Dihydrofolate Reductase with Dual Binding Modes That Can Forestall Resistance” (ACS Medicinal Chemistry Letters, 2018).
Where two headings read alike, the source gives them in different places.

Tests used:
[1] = system: wild-type and Pyr-resistant mutant P. falciparum; experiment: microbe, parasite or virus in culture; format: cell-based; settings: Plasmodium falciparum, read-out: IC50 against both wild-type and Pyr-resistant mutant P. falciparum
[2] = system: surrogate cells (BL21(DE3) E. coli) expressing N51I+C59R+S108N+I164L quadruple mutant PfDHFR; experiment: Bacterial surrogate growth, cells expressing quadruple mutant PfDHFR; format: cell-based, Escherichia coli; settings: 100 µM BT1, M9 minimal medium, trimethoprim
[3] = system: P. falciparum K1CB1 (NRNI); experiment: microbe, parasite or virus in culture; format: cell-based; settings: Plasmodium falciparum, read-out: IC50 P. falciparum K1CB1 (NRNI)
[4] = system: surrogate cells (BL21(DE3) E. coli) expressing wild-type PfDHFR; experiment: Bacterial surrogate growth, cells expressing wild-type PfDHFR; format: cell-based, Escherichia coli; settings: 100 µM BT1, M9 minimal medium, trimethoprim
in vitro = settings: African green monkey
[5] = system: P. falciparum TM4/8.2 (NCSI); experiment: microbe, parasite or virus in culture; format: cell-based; settings: Plasmodium falciparum, read-out: IC50 P. falciparum TM4/8.2 (NCSI)
hDHFR = target: T1, hDHFR (Homo sapiens, UniProt P00374); settings: read-out: Ki hDHFR
T1 sequence (P00374 1-187): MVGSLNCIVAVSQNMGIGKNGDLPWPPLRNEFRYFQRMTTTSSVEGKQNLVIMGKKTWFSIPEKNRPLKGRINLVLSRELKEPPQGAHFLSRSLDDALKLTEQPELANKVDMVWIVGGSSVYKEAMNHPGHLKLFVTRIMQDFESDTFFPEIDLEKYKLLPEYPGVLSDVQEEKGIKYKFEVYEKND

[6] = system: P. falciparum CSL-2 (NRNL); experiment: microbe, parasite or virus in culture; format: cell-based; settings: Plasmodium falciparum, read-out: IC50 P. falciparum CSL-2 (NRNL)
P. falciparum W2 (IRNI) = experiment: microbe, parasite or virus in culture; format: cell-based; settings: Plasmodium falciparum, W2, read-out: IC50 P. falciparum W2 (IRNI)
[7] = system: P. falciparum V1/S (IRNL); experiment: microbe, parasite or virus in culture; format: cell-based; settings: Plasmodium falciparum, read-out: IC50 P. falciparum V1/S (IRNL)
Vero cells = system: Vero cells; parameters: method as in PMID 11881993; settings: IC50 against Vero cells; read-out: cytotoxicity Vero cells; cited from earlier work
[8] = system: P. falciparum V1/S (IRNL); settings: ± SD; cited from earlier work

Compound	IC50 [1] [nM]	growth inhibition of surrogate cells [2]	IC50 [3] [nM]	growth inhibition of surrogate cells [4]	IC50 (in vitro) [nM]	IC50 [5] [nM]	Ki (hDHFR) [nM]	IC50 [6] [nM]	IC50 (P. falciparum W2 (IRNI)) [nM]	IC50 [7] [nM]	IC50 (Vero cells) [nM]	IC50 [8] [nM]
CCc1nc(N)nc(N)c1OCCCOc1cccc(-c2c(N)nc(N)nc2CC)c1 [BT1]	< 5000	completely inhibitory	220 ± 60	completely inhibitory	5940 ± 650	290 ± 50	22.5 ± 2.9	510 ± 80	250 ± 50	1720 ± 690	–	–
CCc1nc(N)nc(N)c1OCCCOc1ccc(-c2c(N)nc(N)nc2CC)cc1 [BT2S]	–	–	1840 ± 310	–	6300 ± 1500	63 ± 14	20.2 ± 3.3	3950 ± 360	2350 ± 100	4400 ± 710	–	–
CCc1nc(N)nc(N)c1OCCCOc1ccc(-c2c(N)nc(N)nc2CC)cc1 [BT2]	–	–	–	–	–	–	18.1 ± 1.3	–	–	–	–	–
CCc1nc(N)nc(N)c1-c1ccc(OCCCOc2ccc(-c3c(N)nc(N)nc3CC)cc2)cc1 [BT3S]	–	–	330 ± 38	–	2530 ± 440	35 ± 3.3	33.6 ± 10.6	310 ± 20	300 ± 30	330 ± 23	–	–
CCc1nc(N)nc(N)c1-c1cccc(Cl)c1 [P30]	–	–	–	–	–	–	–	–	–	–	7000	–
Cc1nc(N)nc(N)c1OCCCOc1cc(Cl)c(Cl)cc1Cl [P65, reference compound]	–	–	1920 ± 530	–	4030 ± 410	–	47.6 ± 4	4400 ± 2100	2270 ± 650	–	–	–
CCc1nc(N)nc(N)c1-c1ccc(Cl)cc1 [Pyr, pyrimethamine, reference compound]	–	–	–	–	> 100000	–	–	–	–	–	–	> 100000
